Bridge positions count the residues as written; N and C are the ends. Square brackets hold non-standard residues; d marks the D form. Peptide text beside a SMILES is read from it. S5 = C=CCCC[C@](C)(N)C(=O)O

In test [1] the test system is mice with bleomycin-induced pulmonary fibrosis. Kind of test: HE staining pathomorphology and inflammatory score of bleomycin-induced pulmonary fibrosis. The format is in vivo, C57BL/6 mice. As to conditions: Table 3 groups, 2 mg/kg i.p., after 28 days, grade 0-5.
Another test has as its target T1, TRB3 protein (Homo sapiens, UniProt Q96RU7).
T1 construct: purchased RD
T1 sequence (Q96RU7 1-358): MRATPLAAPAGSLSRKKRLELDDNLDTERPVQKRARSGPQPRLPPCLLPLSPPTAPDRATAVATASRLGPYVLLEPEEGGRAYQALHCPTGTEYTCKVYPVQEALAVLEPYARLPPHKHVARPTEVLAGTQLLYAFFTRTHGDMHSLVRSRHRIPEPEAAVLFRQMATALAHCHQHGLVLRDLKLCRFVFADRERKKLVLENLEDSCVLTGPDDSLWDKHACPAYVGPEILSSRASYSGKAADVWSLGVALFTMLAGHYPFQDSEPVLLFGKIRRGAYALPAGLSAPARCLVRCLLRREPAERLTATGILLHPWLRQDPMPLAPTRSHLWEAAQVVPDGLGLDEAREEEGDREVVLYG
In words: Surface plasmon resonance (Biacore T200) binding of polypeptides to TRB3 protein. As to conditions: SPR, FIG. 4-1, 4-2 and Table 1. (In general: In SPR one partner is held on a chip, and binding of the other changes the refractive index at the surface.)

The subject of test [2] is mice with bleomycin-induced pulmonary fibrosis. In words: Survival rate of mice with bleomycin-induced pulmonary fibrosis. The class given is in vivo, C57BL/6 mice. As to conditions: Table 3 groups: 2 mg/kg i.p., 10th to 28th day after modeling, twice a week.

In test [1], `CSCC[C@H](NC(=O)[C@H](CC(C)C)NC(=O)[C@@H](N)Cc1c[nH]cn1)C(=O)N[C@@H](C)C(=O)N[C@@H](CS)C(=O)N[C@@H](Cc1ccccc1)C(=O)N[C@H](C(=O)N[C@@H](CS)C(=O)N[C@@H](C)C(=O)N[C@@H](CCCCN)C(=O)N[C@@]1(C)CCCC=CCCC[C@@](C)(C(=O)O)NC(=O)[C@H](CCCCN)NC(=O)[C@H](CCCCN)NC(=O)[C@H](CC(C)C)NC1=O)[C@@H](C)O` [S11, His-Leu-Met-Ala-Cys-Phe-Thr-Cys-Ala-Lys-S5-Leu-Lys-Lys-S5] (H-HLMACFTCAK[S5]LKK[S5]-OH; staple 11-15; N-terminus and C-terminus assumed) showed an Inflammatory score of 3. In addition, the “interaction with the TRB3 protein (in words)” value at TRB3 protein is “interacted with the TRB3 protein”. Also, in test [2] (7 days), the “Survival rate (%) 7 days” value turned out to be 100%. Further, the “Survival rate (%) 14 days” value in test [2] (14 days) was found to be 93.33%. Besides, the “Survival rate (%) 21 days” value in test [2] (21 days) was 86.67%. Further, the “Survival rate (%) 28 days” value in test [2] (28 days) is on record as 86.67%.
